Data set [1] can be described thus: aqueous solubility. The format is physicochemical. Conditions: aqueous medium; at about room temperature. The protocol: (§1) Unfortunately, (2R)-2-[[(4-chlorophenyl)sulfonyl][[2-fluoro-4-(1,2,4-oxadiazol-3-yl)phenyl]methyl]amino]-5,5,5-trifluoropentanamide has poor aqueous solubility that is often characterized as <1 ug/mL at about room temperature. […] Thus, it now appears that in order to provide optimal exposure of the API, an amorphous (non-crystalline) form of the active compound should be provided.

Data set [2] in a line: solubility of the compound in PVP-VA. The format is physicochemical. The conditions noted are these: at a temperature of about 100° C. As for the experimental part: In order to prepare the compositions hereinabove described, various preparation means available to the skilled artisan may be utilized. It is preferred that the compositions containing the active compound and PVP-VA be prepared by the methods of hot-melt extrusion or spray-drying, with hot-melt extrusion being more preferred. A processing temperature of about 150-160° C. is preferred for hot-melt extrusion processing of the active compound using apparatus available in the art.

Data set [3] is described as follows: bioavailability after particle size reduction. Format: in vivo. The protocol: as §1

For orientation: solubility means the concentration that dissolves in the medium under given conditions. In data set [1], `NC(=O)[C@@H](CCC(F)(F)F)N(Cc1ccc(-c2ncon2)cc1F)S(=O)(=O)c1ccc(Cl)cc1` [(2R)-2-[[(4-chlorophenyl)sulfonyl][[2-fluoro-4-(1,2,4-oxadiazol-3-yl)phenyl]methyl]amino]-5,5,5-trifluoropentanamide] yielded a solubility of less than 1 µg/mL. In data set [2], the “soluble in PVP-VA” value was “less than 5%”. Besides, the “improvement in bioavailability by particle size reduction” value in data set [3] is reported as “no appreciable improvement”.

The record behind these values is US20100261768A1, “Bioavailable Compositions of Amorphous Alpha-(N-Sulfonamido)Acetamide Compound” (Bristol-Myers Squibb Company, priority 2009, published 2010).
